This assay has as its system Galium aparine. Briefly: Field trials in winter oilseed rape: visually estimated weed control of Galium aparine, synergy by the Colby method. The format is in vivo. The settings on record: pethoxamid 1200 g a.i/ha, picloram 23 g a.i/ha, A + B 1200 + 23 g/ha. The text has this:
Two field trials are established in commercial fields of winter oilseed rape Brassica napus, at sites known to contain natural populations of broad-leaved weeds, including Galium aparine. Plots, with a minimum size of 18 m^2, are arranged with three replicates per treatment.
At each trial, each treatment is applied using a small plot sprayer fitted with flatfan nozzles in a spray volume of 200 l/ha at one of three treatment timings: Timing A—early post-emergence of the oilseed rape, when the crop is at cotyledon to one true leaf stage (BBCH10/11) and pre-emergence of G. aparine; Timing B—when the crop has two true leaves (BBCH 12) of the crop and at emergence of G. aparine (BBCH09-10). Full application details are recorded, including weather and soil conditions, as well as growth stages and populations of crop and weed species.
Weed control is then assessed by visually estimating the control, as a percentage, relative to the ground cover and vigour of each weed species in the untreated plots. The weed control evaluation is made at 24-27 days, 40-46 days, 54-60 days and 75-81 days after treatment Timing A.
The data is then analysed using the Colby method to determine synergy.

[1] abbreviates: Timing A (crop BBCH10/11, pre-emergence of G. aparine), 24-27 days after Timing A.
Setting [2] is: Timing A (crop BBCH10/11, pre-emergence of G. aparine), 40-46 days after Timing A.
[3] abbreviates: Timing A (crop BBCH10/11, pre-emergence of G. aparine), 54-60 days after Timing A.
[4] abbreviates: Timing A (crop BBCH10/11, pre-emergence of G. aparine), 75-81 days after Timing A.
[5] abbreviates: Timing B (crop BBCH 12, at emergence of G. aparine BBCH09-10), 24-27 days.
Where [6] appears, read: Timing B (crop BBCH 12, at emergence of G. aparine BBCH09-10), 40-46 days.
Setting [7] is: Timing B (crop BBCH 12, at emergence of G. aparine BBCH09-10), 75-81 days.

For the compound `Nc1c(Cl)c(Cl)nc(C(=O)O)c1Cl` [picloram], the “Weed control (visual estimate relative to untreated plots)” value under setting [1] is reported as 0%; the “Weed control (visual estimate relative to untreated plots)” value under setting [2] is on record as 0%; the “Weed control (visual estimate relative to untreated plots)” value under setting [3] was 30%; the “Weed control (visual estimate relative to untreated plots)” value under setting [4] is 30%; the “Weed control (visual estimate relative to untreated plots)” value under setting [5] is recorded as 10%; the “Weed control (visual estimate relative to untreated plots)” value under setting [6] is given as 6.67%. For the same compound, the “Weed control (visual estimate relative to untreated plots)” value under setting [7] is reported as 43.33%.

`CCOCCN(C(=O)CCl)C(=C(C)C)c1ccccc1` [pethoxamid]: the “Weed control (visual estimate relative to untreated plots)” value was 56.67% under setting [1]; 20% under setting [2]; 43.33% under setting [3]; 23.33% under setting [4]; 20% under setting [5]; 6.67% under setting [6]. Besides, under setting [7], the “Weed control (visual estimate relative to untreated plots)” value is on record as 50%.

The values above are taken from patent US9861103B2, “Combination of pethoxamid and picloram” (CHEMINOVA A/S, priority 2013, dated 2018).
